Data from the NIST ThermoML archive (doi:10.1016/j.tca.2005.08.036).

Details: Liquid, Capillary tube (Ostwald / Ubbelohde) method

O [water]
viscosity [mPa·s]
Details	284.56 K	304.83 K	335.46 K	368.64 K	397.56 K	435.61 K
100 kPa	1.257	0.7654	0.4482	0.2938	–	–
10000 kPa	1.249	0.7725	0.4504	0.2966	0.2278	0.1679
40000 kPa	1.231	0.7745	0.4635	0.3086	0.2358	0.1745
